Article PMC6769516, “Apoptotic Effects of Drug Targeting Conjugates Containing Different GnRH Analogs on Colon Carcinoma Cells” (International Journal of Molecular Sciences, 2019)
Where two headings read alike, the source gives them in different places. Non-standard residues stand in square brackets, D forms with d. Residues, ends and D or L forms follow the SMILES beside them. *: point of attachment. Daunorubicin(13-NOCH2CO) = COc1cccc2c1C(=O)c1c(O)c3c(c(O)c1C2=O)C[C@@](O)(C(C)=NOCC(=O)*)C[C@@H]3O[C@H]1C[C@H](N)[C@H](O)[C@H](C)O1; pGlu = O=C1CC[C@@H](C(=O)O)N1; Butyryl = CCCC(=O)*

System: HT-29 cell line
Experiment: Cell viability assay, impedance-based xCELLigence SP System
Set-up: species or system human
Settings: for IC50: Delta CI normalized to control, sigmoidal fit, mean ± SD of three parallel measurements, read-out: IC50 of cytotoxicity; for Viability (control = 100 %): conjugate at 10^-4 M, mean of three parallels ± SD
Method: The effects of different GnRH conjugates on HT-29 cell growth were measured by the xCELLigence SP System (ACEA Biosciences, San Diego, CA, USA), which allows cell viability to be detected in real-time via impedance readouts. The experimental setup and the procedure were almost identical to the one described in more detail in our previous works. The continuous monitoring of cell viability provides the opportunity to determine the difference in the time-dependent cellular response for the various GnRH conjugates and to select the optimal time points to conduct more specific end-point assays (e.g., apoptosis assays) for further investigating the mechanism of antitumor activity. […] CI is a dimensionless value and is calculated from the impedance of the well with cells and the background impedance of the well without cells.
Briefly, the main steps of the experiment are the following: (i) the background measurement, in which 80 µL complete cell culture medium was loaded to each well of an E-plate in order to establish a constant CI value; (ii) the cell monitoring step, in which 100 µL of cell suspension (10^5 cell/mL) was added to each well followed by an incubation period of 24 h; and (iii) the compound activity monitoring step, in which test-conjugates (final concentration range: 32 nM–100 µM) were added to the cells at the plateau phase and the CI change was recorded for a further 72 h at 10 kHz. Stock solutions (5 × 10^−3 M) were prepared from the test-conjugates in distilled water and then further diluted to 320 nM–1 mM in the complete cell culture medium. The wells treated with an adequate volume of pure cell culture medium represented the control. Triplicate wells were used for each treatment for statistical analysis.
Delta CI values—a difference of CI value at the time point of cell inoculation and CI value at a given time point—were calculated by RTCA 2.0 software (ACEA Biosciences, San Diego, CA, USA) integrated into the xCELLigence SP System to characterize the time-dependent antiproliferative/cytotoxic effect of the different GnRH conjugates. IC50 values were used to compare the effect of the conjugates.

| Structure (SMILES) | IC50 (24 h incubation) [µM] | IC50 (48 h incubation) [µM] | IC50 (72 h incubation) [µM] | Viability (control = 100 %) (24 h) [%] | Viability (control = 100 %) (48 h) [%] | Viability (control = 100 %) (72 h) [%] |
| --- | --- | --- | --- | --- | --- | --- |
| CCCC(=O)NCCCC[C@H](NC(=O)[C@H](Cc1c[nH]c2ccccc12)NC(=O)[C@H](Cc1c[nH]cn1)NC(=O)[C@@H]1CCC(=O)N1)C(=O)N[C@@H](Cc1c[nH]cn1)C(=O)N[C@H](CCCCNC(=O)CON=C(C)[C@]1(O)Cc2c(O)c3c(c(O)c2[C@@H](O[C@H]2C[C@H](N)[C@H](O)[C@H](C)O2)C1)C(=O)c1c(OC)cccc1C3=O)C(=O)N[C@@H](Cc1c[nH]c2ccccc12)C(=O)N[C@@H](Cc1ccc(O)cc1)C(=O)N1CCC[C@H]1C(=O)NCC(N)=O [II-[^4Lys(Bu),^6D-Lys(Dau)], GnRH-II-[^4Lys(Bu),^6D-Lys(Dau=Aoa)]] ([pGlu]HWK(Butyryl)H[dK](Daunorubicin(13-NOCH2CO))WYPG-NH2) | 65.8 ± 3.89 | 69.7 ± 4.12 | 48.1 ± 6.89 | 35.64 ± 3.41 | 19.40 ± 2.77 | 24.31 ± 4.20 |
| CCCC(=O)NCCCC[C@H](NC(=O)[C@H](Cc1c[nH]c2ccccc12)NC(=O)[C@H](Cc1c[nH]cn1)NC(=O)[C@@H]1CCC(=O)N1)C(=O)N[C@@H](Cc1ccc(O)cc1)C(=O)N[C@H](CCCCNC(=O)CON=C(C)[C@]1(O)Cc2c(O)c3c(c(O)c2[C@@H](O[C@H]2C[C@H](N)[C@H](O)[C@H](C)O2)C1)C(=O)c1c(OC)cccc1C3=O)C(=O)N[C@@H](CC(C)C)C(=O)N[C@@H](CCCNC(=N)N)C(=O)N1CCC[C@H]1C(=O)NCC(N)=O [I-[^4Lys(Bu),^6D-Lys(Dau)], GnRH-I-[^4Lys(Bu),^6D-Lys(Dau=Aoa)]] ([pGlu]HWK(Butyryl)Y[dK](Daunorubicin(13-NOCH2CO))LRPG-NH2) | > 100 | 18.7 ± 1.19 | 16.2 ± 1.75 | 86.69 ± 4.84 | 15.50 ± 0.55 | 5.31 ± 1.27 |
| COc1cccc2c1C(=O)c1c(O)c3c(c(O)c1C2=O)C[C@@](O)(C(C)=NOCC(=O)NCCCC[C@@H](NC(=O)[C@H](Cc1c[nH]cn1)NC(=O)[C@H](CO)NC(=O)[C@H](Cc1c[nH]c2ccccc12)NC(=O)[C@H](Cc1c[nH]cn1)NC(=O)[C@@H]1CCC(=O)N1)C(=O)N[C@@H](Cc1c[nH]c2ccccc12)C(=O)N[C@@H](Cc1ccc(O)cc1)C(=O)N1CCC[C@H]1C(=O)NCC(N)=O)C[C@@H]3O[C@H]1C[C@H](N)[C@H](O)[C@H](C)O1 [II-[^4Ser,^6D-Lys(Dau)], GnRH-II-[^4Ser,^6D-Lys(Dau=Aoa)]] ([pGlu]HWSH[dK](Daunorubicin(13-NOCH2CO))WYPG-NH2) | 58.9 ± 10 | 24.2 ± 0.86 | 19.7 ± 2.51 | – | 16.91 ±1.91 | 20.43 ± 2.66 |
| COc1cccc2c1C(=O)c1c(O)c3c(c(O)c1C2=O)C[C@@](O)(C(C)=NOCC(=O)NCCCC[C@@H](NC(=O)[C@H](Cc1ccc(O)cc1)NC(=O)[C@H](CO)NC(=O)[C@H](Cc1c[nH]c2ccccc12)NC(=O)[C@H](Cc1c[nH]cn1)NC(=O)[C@@H]1CCC(=O)N1)C(=O)N[C@@H](CC(C)C)C(=O)N[C@@H](CCCNC(=N)N)C(=O)N1CCC[C@H]1C(=O)NCC(N)=O)C[C@@H]3O[C@H]1C[C@H](N)[C@H](O)[C@H](C)O1 [I-[^4Ser,^6D-Lys(Dau)], GnRH-I-[^4Ser,^6D-Lys(Dau=Aoa)]] | > 100 | 60.2 ± 3.5 | 21.9 ± 1.54 | – | 43.82 ± 1.18 | – |
